Measurements published in patent US10487093B2, “Heterocyclic compounds, in particular 2-oxo-4,4,5,5,6,6,7,7-octahydrobenzoxazole derivatives, and their use as antibacterial compounds” (priority 2016, dated 2019).
Converted amounts (≈) assume the structure as drawn.

Experiments:
E. coli MG1655 D87G = assay type: cell-based, Escherichia coli; settings: compared to the isogenic parent strain E. coli MG1655; D87G mutation on DNA gyrase subunit GyrA
E. coli MG1655 S83L = assay type: cell-based, Escherichia coli; settings: compared to the isogenic parent strain E. coli MG1655; S83L mutation on DNA gyrase subunit GyrA
[1] = system: human hepatic cell line (HepG2 ATCC HB-8065); test: Human cell viability assay (CellTiter-Glo); settings: Homo sapiens, HepG2, 24 h, read-out: IC50 (μg/mL) HepG2
[2] = system: Acinetobacter baumannii NCTC 13420; test: MIC, broth microdilution (CLSI) versus planktonic bacteria; assay type: cell-based; settings: NCTC13420; Acinetobacter baumannii NCTC 13420; 16-20 h; mode of three independent experiments; read-out: MIC, Ab NCTC 13420
[3] = system: Streptococcus pneumoniae ATCC 49619; test: as above; assay type: cell-based; settings: ATCC49619; Streptococcus pneumoniae ATCC 49619; 16-20 h; mode of three independent experiments; read-out: MIC, Sp ATCC 49619
[4] = system: Pseudomonas aeruginosa ATCC 27853; test: as above; assay type: cell-based; settings: ATCC27853; Pseudomonas aeruginosa ATCC 27853; 16-20 h; mode of three independent experiments; read-out: MIC, Pa ATCC 27853
E. coli ATCC BAA-2452 = test: as above; assay type: cell-based; settings: Escherichia coli ATCC BAA-2452; 16-20 h; mode of three independent experiments; read-out: MIC, Ec ATCC BAA 2452
[5] = system: Enterobacter cloacae NCTC 13406; test: as above; assay type: cell-based; settings: NCTC13406; Enterobacter cloacae NCTC 13406; 16-20 h; mode of three independent experiments; read-out: MIC, Ecl NCTC 13406
[6] = system: Escherichia coli ATCC 25922; test: as above; assay type: cell-based; settings: ATCC25922; Escherichia coli ATCC 25922; 16-20 h; mode of three independent experiments; read-out: MIC, Ec ATCC 25922
E. coli NCTC 13476 = test: as above; assay type: cell-based; settings: NCTC13476; Escherichia coli NCTC 13476; 16-20 h; mode of three independent experiments; read-out: MIC, Ec NCTC 13476
[7] = system: Acinetobacter baumannii ATCC 19606; test: as above; assay type: cell-based; settings: ATCC19606; Acinetobacter baumannii ATCC 19606; 16-20 h; mode of three independent experiments; read-out: MIC, Ab ATCC 19606
E. coli MG1655 = test: as above; assay type: cell-based, Escherichia coli; settings: Escherichia coli, MG1655, read-out: MIC, Ec MG1655 WT
[8] = system: Staphylococcus aureus ATCC 29213; test: as above; assay type: cell-based; settings: ATCC29213; Staphylococcus aureus ATCC 29213; 16-20 h; mode of three independent experiments; read-out: MIC, Sa ATCC 29213
[9] = system: Haemophilus influenzae ATCC 49247; test: as above; assay type: cell-based; settings: ATCC49247; Haemophilus influenzae ATCC 49247; 16-20 h; mode of three independent experiments; read-out: MIC, Hi ATCC 49247

Structure (SMILES) | Fold increase in MIC, E. coli MG1655 D87G (E. coli MG1655 D87G) | Fold increase in MIC, E. coli MG1655 S83L (E. coli MG1655 S83L) | IC50 [1] | MIC [2] | MIC [3] | MIC [4] | MIC (E. coli ATCC BAA-2452) | MIC [5] | MIC [6] | MIC (E. coli NCTC 13476) | MIC [7] | MIC (E. coli MG1655) | MIC [8] | MIC [9]
O=C1COc2ccc(N3C(=O)O[C@H]4C[C@@H](NCCn5c(=O)ccc6ccc(OC(F)F)cc65)CC[C@@H]43)nc2N1 [Compound 101, 1-(2-{[(3aS,6S,7aS)-2-oxo-3-{3-oxo-2H,3H,4H-pyrido[3,2-b][1,4]oxazin-6-yl}-octahydro-1,3-benzoxazol-6-yl]amino}ethyl)-7-(difluoromethoxy)-1,2-dihydro quinolin-2-one] | 1 fold | 1 fold | 10 to 100 µg/mL (≈ 18.5 to 185 µM) | < 1 µg/mL | < 1 µg/mL | 1 to 10 µg/mL (≈ 1.85 to 18.5 µM) | < 1 µg/mL | 1 to 10 µg/mL (≈ 1.85 to 18.5 µM) | < 1 µg/mL | < 1 µg/mL | < 1 µg/mL | < 1 µg/mL | < 1 µg/mL | 
N#Cc1cnc2ccc(=O)n(CCN[C@H]3CC[C@H]4[C@H](C3)OC(=O)N4c3ccc4c(n3)NC(=O)CO4)c2c1 [Compound 55, 5-(2-{[(3aS,6S,7aS)-2-oxo-3-{3-oxo-2H,3H,4H-pyrido[3,2-b][1,4]oxazin-6-yl}-octahydro-1,3-benzoxazol-6-yl]amino}ethyl)-6-oxo-5,6-dihydro-1,5-naphthyridine-3-carbonitrile] | 1 fold | 1 fold | > 100 µg/mL | < 1 µg/mL | < 1 µg/mL |  | < 1 µg/mL | < 1 µg/mL | < 1 µg/mL | < 1 µg/mL | < 1 µg/mL | < 1 µg/mL | < 1 µg/mL | < 1 µg/mL
COc1cc2c(ccc(=O)n2CCN[C@H]2CC[C@H]3[C@H](C2)OC(=O)N3c2ccc3c(n2)NC(=O)CO3)cn1 [Compound 62, 1-(2-{[(3aS,6S,7aS)-2-oxo-3-{3-oxo-2H,3H,4H-pyrido[3,2-b][1,4]oxazin-6-yl}-octahydro-1,3-benzoxazol-6-yl]amino}ethyl)-7-methoxy-1,2-dihydro-1,6-naphthyridin-2-one] | 0.5 fold | 1 fold |  | < 1 µg/mL | < 1 µg/mL | 10 to 100 µg/mL (≈ 19.7 to 197 µM) | 1 to 10 µg/mL (≈ 1.97 to 19.7 µM) |  | < 1 µg/mL | 1 to 10 µg/mL (≈ 1.97 to 19.7 µM) | 1 to 10 µg/mL (≈ 1.97 to 19.7 µM) | 1 to 10 µg/mL (≈ 1.97 to 19.7 µM) | < 1 µg/mL | 1 to 10 µg/mL (≈ 1.97 to 19.7 µM)
O=C1COc2cnc(N3C(=O)O[C@@H]4C[C@H](NCCn5c(=O)cnc6cc(F)c(F)cc65)CC[C@H]43)nc2N1 [Compound 38, 1-(2-{[(3aR,6R,7aR)-2-oxo-3-{7-oxo-6H,7H,8H-pyrimido[5,4-b][1,4]oxazin-2-yl}-octahydro-1,3-benzoxazol-6-yl]amino}ethyl)-6,7-difluoro-1,2-dihydroquinoxalin-2-one] |  | 2 fold | 10 to 100 µg/mL (≈ 19.5 to 195 µM) | 1 to 10 µg/mL (≈ 1.95 to 19.5 µM) | < 1 µg/mL | 1 to 10 µg/mL (≈ 1.95 to 19.5 µM) | 1 to 10 µg/mL (≈ 1.95 to 19.5 µM) | < 1 µg/mL | < 1 µg/mL | 1 to 10 µg/mL (≈ 1.95 to 19.5 µM) | 1 to 10 µg/mL (≈ 1.95 to 19.5 µM) | < 1 µg/mL | < 1 µg/mL | < 1 µg/mL
O=C1COc2ccc(N3C(=O)O[C@H]4C[C@@H](NCCn5c(=O)ccc6ncc(OC(F)F)cc65)CC[C@@H]43)nc2N1 [Compound 98, 1-(2-{[(3aS,6S,7aS)-2-oxo-3-{3-oxo-2H,3H,4H-pyrido[3,2-b][1,4]oxazin-6-yl}-octahydro-1,3-benzoxazol-6-yl]amino}ethyl)-7-(difluoromethoxy)-1,2-dihydro-1,5-naphthyridin-2-one] | 1 fold | 1 fold | > 100 µg/mL | < 1 µg/mL |  | 1 to 10 µg/mL (≈ 1.84 to 18.4 µM) | < 1 µg/mL | 1 to 10 µg/mL (≈ 1.84 to 18.4 µM) | < 1 µg/mL | 1 to 10 µg/mL (≈ 1.84 to 18.4 µM) | < 1 µg/mL | < 1 µg/mL | < 1 µg/mL | < 1 µg/mL
O=C1COc2ccc(N3C(=O)O[C@@H]4C[C@H](NCCn5c(=O)cnc6cc(F)c(F)cc65)CC[C@H]43)nc2N1 [Compound 70, 1-(2-{[(3aR,6R,7aR)-2-oxo-3-{3-oxo-2H,3H,4H-pyrido[3,2-b][1,4]oxazin-6-yl}-octahydro-1,3-benzoxazol-6-yl]amino}ethyl)-6,7-difluoro-1,2-dihydroquinoxalin-2-one] | 4 fold | 2 fold | 10 to 100 µg/mL (≈ 19.5 to 195 µM) | < 1 µg/mL | < 1 µg/mL | < 1 µg/mL | < 1 µg/mL | < 1 µg/mL | < 1 µg/mL | < 1 µg/mL |  | < 1 µg/mL | < 1 µg/mL | < 1 µg/mL
N#Cc1cccc(-c2cccc(CN[C@H]3CC[C@H]4[C@H](C3)OC(=O)N4c3ccc4c(n3)NC(=O)CO4)c2)n1 [Compound 57, 6-[3-({[(3aS,6S,7aS)-2-oxo-3-{3-oxo-2H,3H,4H-pyrido[3,2-b][1,4]oxazin-6-yl}-octahydro-1,3-benzoxazol-6-yl]amino}methyl)phenyl]pyridine-2-carbonitrile] | 1 fold | 1 fold |  | < 1 µg/mL | < 1 µg/mL |  | 1 to 10 µg/mL (≈ 2.01 to 20.1 µM) | 1 to 10 µg/mL (≈ 2.01 to 20.1 µM) | < 1 µg/mL | 1 to 10 µg/mL (≈ 2.01 to 20.1 µM) | < 1 µg/mL | < 1 µg/mL | < 1 µg/mL | < 1 µg/mL
NCCOc1ccc2ccc(=O)n(CCN[C@@H]3CC[C@@H]4[C@@H](C3)OC(=O)N4c3ccc4c(n3)NC(=O)CO4)c2c1 [Compound 23, 1-(2-{[(3aR,6R,7aR)-2-oxo-3-{3-oxo-2H,3H,4H-pyrido[3,2-b][1,4]oxazin-6-yl}-octahydro-1,3-benzoxazol-6-yl]amino}ethyl)-7-(2-aminoethoxy)-1,2-dihydroquinolin-2-one] | 0.5 fold | 0.5 fold | > 100 µg/mL | 10 to 100 µg/mL (≈ 18.7 to 187 µM) | 1 to 10 µg/mL (≈ 1.87 to 18.7 µM) | 1 to 10 µg/mL (≈ 1.87 to 18.7 µM) | 1 to 10 µg/mL (≈ 1.87 to 18.7 µM) | > 100 µg/mL | < 1 µg/mL | 10 to 100 µg/mL (≈ 18.7 to 187 µM) |  | 1 to 10 µg/mL (≈ 1.87 to 18.7 µM) | < 1 µg/mL | > 100 µg/mL
N#Cc1cccc(-c2cccc(CN[C@H]3CC[C@H]4[C@H](C3)OC(=O)N4c3ccc4c(n3)NC(=O)CO4)n2)c1 [Compound 105, 3-[6-({[(3aS,6S,7aS)-2-oxo-3-{3-oxo-2H,3H,4H-pyrido[3,2-b][1,4]oxazin-6-yl}-octahydro-1,3-benzoxazol-6-yl]amino}methyl)pyridin-2-yl]benzonitrile] | 1 fold | 1 fold | 10 to 100 µg/mL (≈ 20.1 to 201 µM) | < 1 µg/mL |  | 1 to 10 µg/mL (≈ 2.01 to 20.1 µM) | < 1 µg/mL | 1 to 10 µg/mL (≈ 2.01 to 20.1 µM) | < 1 µg/mL | 1 to 10 µg/mL (≈ 2.01 to 20.1 µM) | < 1 µg/mL | < 1 µg/mL | < 1 µg/mL | < 1 µg/mL
O=C1COc2ccc(N3C(=O)O[C@@H]4C[C@@H](NCCn5c(=O)cnc6cc(F)c(F)cc65)CC[C@@H]43)nc2N1 [Compound 22, 1-(2-{[(3aS,6S,7aR)-2-oxo-3-{3-oxo-2H,3H,4H-pyrido[3,2-b][1,4]oxazin-6-yl}-octahydro-1,3-benzoxazol-6-yl]amino}ethyl)-6,7-difluoro-1,2-dihydroquinoxalin-2-one] | 2 fold | 2 fold |  | < 1 µg/mL | < 1 µg/mL | 1 to 10 µg/mL (≈ 1.95 to 19.5 µM) | < 1 µg/mL | < 1 µg/mL | < 1 µg/mL | < 1 µg/mL | < 1 µg/mL | < 1 µg/mL | < 1 µg/mL | < 1 µg/mL
